In the NIST ThermoML archive (doi:10.1007/s10765-010-0719-7):

How the values were obtained:
[1] = 101 kPa, Liquid; for mass density: Pycnometric method
[2] = refractive index (Na D-line) (dimensionless); details: 303.15 K; 101.33 kPa; Liquid; Standard Abbe refractometry
[3] = refractive index (Na D-line) (dimensionless); xn = mol fraction of the nth substance listed; details: 303.15 K, 101 kPa, Liquid, Standard Abbe refractometry
[4] = xn = mol fraction of the nth substance listed; details: 101 kPa, Liquid; for mass density: Pycnometric method

CC(C)CCO [3-methylbutan-1-ol]
[1]
Details | mass density [kg/m3] | speed of sound [m/s] | viscosity [mPa·s]
303.15 K | 803.1 | 1197.4 | 3.262
313.15 K | 796.4 | – | 2.441
323.15 K | 789.8 | – | 1.94

Details | refractive index
[2] | 1.4035

CCCCOCCO [2-butoxyethan-1-ol] + CC(C)CCO
[3]
Details | refractive index
x2 = 0 | 1.415
x2 = 0.1297 | 1.4138
x2 = 0.251 | 1.4127
x2 = 0.3649 | 1.4115
x2 = 0.472 | 1.4104
x2 = 0.5728 | 1.4093
x2 = 0.6679 | 1.408
x2 = 0.7578 | 1.4069
x2 = 0.8428 | 1.4058
x2 = 0.9235 | 1.4047

[4]
Details | mass density, 303.15 K [kg/m3] | mass density, 313.15 K [kg/m3] | mass density, 323.15 K [kg/m3] | speed of sound, 303.15 K [m/s] | viscosity, 303.15 K [mPa·s] | viscosity, 313.15 K [mPa·s] | viscosity, 323.15 K [mPa·s]
x2 = 0 | 892 | 884.2 | 877.5 | 1288.4 | 2.486 | 1.979 | 1.653
x2 = 0.1297 | 882.2 | 874.5 | 867.7 | 1279.8 | 2.483 | 1.969 | 1.623
x2 = 0.251 | 872.5 | 865.4 | 858.2 | 1270.3 | 2.496 | 1.967 | 1.629
x2 = 0.3649 | 863.1 | 856.1 | 848.8 | 1261.8 | 2.514 | 1.987 | 1.636
x2 = 0.472 | 853.9 | 847.2 | 839.8 | 1251.8 | 2.557 | 1.997 | 1.65
x2 = 0.5728 | 845 | 837.9 | 831 | 1242.3 | 2.594 | 2.028 | 1.673
x2 = 0.6679 | 838.6 | 829.5 | 822.3 | 1233.5 | 2.653 | 2.067 | 1.702
x2 = 0.7578 | 827.7 | 821 | 813.9 | 1224.2 | 2.748 | 2.121 | 1.737
x2 = 0.8428 | 819.3 | 812.5 | 805.7 | 1215.3 | 2.877 | 2.2 | 1.798
x2 = 0.9235 | 811.1 | 804.6 | 797.6 | 1206.4 | 3.058 | 2.303 | 1.851

CCCCOCCO [2-butoxyethan-1-ol]
[1]
Details | mass density [kg/m3] | speed of sound [m/s] | viscosity [mPa·s]
303.15 K | 892 | 1288.4 | 2.486
313.15 K | 884.2 | – | 1.979
323.15 K | 877.5 | – | 1.653

Details | refractive index
[2] | 1.415

CCOCCO [2-ethoxyethan-1-ol]
[1]
Details | mass density [kg/m3] | speed of sound [m/s] | viscosity [mPa·s]
303.15 K | 919.5 | 1301.5 | 1.623
313.15 K | 912 | – | 1.355
323.15 K | 903.8 | – | 1.143

Details | refractive index
[2] | 1.4065

COCCO [2-methoxyethan-1-ol]
[1]
Details | mass density [kg/m3] | speed of sound [m/s] | viscosity [mPa·s]
303.15 K | 956.8 | 1324.3 | 1.55
313.15 K | 946.3 | – | 1.288
323.15 K | 937.8 | – | 1.082

Details | refractive index
[2] | 1.3983

CC(C)CCO [3-methylbutan-1-ol] + COCCO
[3]
Details | refractive index
x1 = 0.0875 | 1.3988
x1 = 0.1775 | 1.3993
x1 = 0.2701 | 1.3999
x1 = 0.3653 | 1.4004
x1 = 0.4633 | 1.4009
x1 = 0.5643 | 1.4014
x1 = 0.6683 | 1.402
x1 = 0.7754 | 1.4025
x1 = 0.886 | 1.403
x1 = 1 | 1.4035

[4]
Details | mass density, 303.15 K [kg/m3] | mass density, 313.15 K [kg/m3] | mass density, 323.15 K [kg/m3] | speed of sound, 303.15 K [m/s] | viscosity, 303.15 K [mPa·s] | viscosity, 313.15 K [mPa·s] | viscosity, 323.15 K [mPa·s]
x1 = 0.0875 | 938.3 | 928.2 | 919.8 | 1312.1 | 1.578 | 1.312 | 1.111
x1 = 0.1775 | 920.5 | 910.8 | 902.8 | 1299.2 | 1.611 | 1.341 | 1.153
x1 = 0.2701 | 903.2 | 893.9 | 885.9 | 1287.4 | 1.652 | 1.376 | 1.169
x1 = 0.3653 | 886.7 | 877.6 | 870 | 1274.8 | 1.749 | 1.432 | 1.192
x1 = 0.4633 | 870.8 | 862.2 | 854.7 | 1261.2 | 1.82 | 1.482 | 1.224
x1 = 0.5643 | 855.8 | 847.6 | 840.1 | 1248.8 | 1.934 | 1.554 | 1.28
x1 = 0.6683 | 841.5 | 833.6 | 826.3 | 1235.7 | 2.119 | 1.667 | 1.355
x1 = 0.7754 | 827.8 | 820.5 | 813.2 | 1223.3 | 2.354 | 1.834 | 1.481
x1 = 0.886 | 815.1 | 808.1 | 801.1 | 1210.5 | 2.715 | 2.06 | 1.671
x1 = 1 | 803.1 | 796.4 | 789.8 | 1197.4 | 3.262 | 2.441 | 1.94

CC(C)CCO [3-methylbutan-1-ol] + CCOCCO
Details | refractive index
[3], x1 = 1 | 1.4035

[4], x1 = 1
Details | mass density [kg/m3] | speed of sound [m/s] | viscosity [mPa·s]
303.15 K | 803.1 | 1197.4 | 3.262
313.15 K | 796.4 | – | 2.441
323.15 K | 789.8 | – | 1.94

CCOCCO [2-ethoxyethan-1-ol] + CC(C)CCO
[3]
Details | refractive index
x2 = 0 | 1.4065
x2 = 0.102 | 1.4062
x2 = 0.2036 | 1.4059
x2 = 0.3047 | 1.4055
x2 = 0.4053 | 1.4052
x2 = 0.5055 | 1.4049
x2 = 0.6053 | 1.4046
x2 = 0.7046 | 1.4043
x2 = 0.8035 | 1.404
x2 = 0.902 | 1.4037

[4]
Details | mass density, 303.15 K [kg/m3] | mass density, 313.15 K [kg/m3] | mass density, 323.15 K [kg/m3] | speed of sound, 303.15 K [m/s] | viscosity, 303.15 K [mPa·s] | viscosity, 313.15 K [mPa·s] | viscosity, 323.15 K [mPa·s]
x2 = 0 | 919.5 | 912 | 903.8 | 1301.5 | 1.623 | 1.355 | 1.143
x2 = 0.102 | 906.1 | 898.6 | 890.5 | 1292.4 | 1.688 | 1.385 | 1.169
x2 = 0.2036 | 892.9 | 885.6 | 877.7 | 1282.4 | 1.761 | 1.424 | 1.196
x2 = 0.3047 | 880.1 | 872.9 | 865.1 | 1272.7 | 1.812 | 1.469 | 1.222
x2 = 0.4053 | 867.7 | 860.5 | 853 | 1262.9 | 1.892 | 1.53 | 1.263
x2 = 0.5055 | 855.8 | 848.7 | 841.3 | 1251.2 | 1.994 | 1.604 | 1.31
x2 = 0.6053 | 844.3 | 837.3 | 830 | 1240.6 | 2.124 | 1.68 | 1.377
x2 = 0.7046 | 833.3 | 826.4 | 819.2 | 1229.3 | 2.301 | 1.812 | 1.46
x2 = 0.8035 | 822.8 | 815.9 | 808.8 | 1219.2 | 2.496 | 1.945 | 1.566
x2 = 0.902 | 812.6 | 805.8 | 799 | 1208.7 | 2.807 | 2.143 | 1.728

CC(C)CCO [3-methylbutan-1-ol] + CCCCOCCO
Details | refractive index
[3], x1 = 1 | 1.4035

[4], x1 = 1
Details | mass density [kg/m3] | speed of sound [m/s] | viscosity [mPa·s]
303.15 K | 803.1 | 1197.4 | 3.262
313.15 K | 796.4 | – | 2.441
323.15 K | 789.8 | – | 1.94

COCCO [2-methoxyethan-1-ol] + CC(C)CCO
Details | refractive index
[3], x2 = 0 | 1.3983

[4], x2 = 0
Details | mass density [kg/m3] | speed of sound [m/s] | viscosity [mPa·s]
303.15 K | 956.8 | 1324.3 | 1.55
313.15 K | 946.3 | – | 1.288
323.15 K | 937.8 | – | 1.082
